Where “and” joins values, the source holds several entries; their conditions need not be identical. Identical values can stand only once.
Tests used:
[1] = for molar volume: 100 kPa, X-ray diffraction; for Triple point temperature: DSC
[2] = Molar enthalpy of transition or fusion; conditions: DSC

O=[N+]([O-])[O-].O=[N+]([O-])[O-].[Ca+2] [calcium nitrate]
[1], Crystal 1
Conditions | molar volume
298 K | 6.616e-05 m3/mol and 6.614e-05 m3/mol
323 K | 6.637e-05 m3/mol and 6.638e-05 m3/mol
348 K | 6.658e-05 m3/mol
373 K | 6.68e-05 m3/mol
398 K | 6.702e-05 m3/mol and 6.703e-05 m3/mol
423 K | 6.725e-05 m3/mol and 6.726e-05 m3/mol
448 K | 6.748e-05 m3/mol and 6.749e-05 m3/mol
473 K | 6.771e-05 m3/mol and 6.773e-05 m3/mol
498 K | 6.794e-05 m3/mol and 6.797e-05 m3/mol
523 K | 6.818e-05 m3/mol and 6.821e-05 m3/mol
548 K | 6.845e-05 m3/mol and 6.842e-05 m3/mol
573 K | 6.871e-05 m3/mol and 6.866e-05 m3/mol
598 K | 6.9e-05 m3/mol and 6.89e-05 m3/mol
623 K | 6.92e-05 m3/mol and 6.915e-05 m3/mol
648 K | 6.945e-05 m3/mol and 6.94e-05 m3/mol
673 K | 6.97e-05 m3/mol and 6.967e-05 m3/mol
698 K | 6.994e-05 m3/mol and 6.992e-05 m3/mol
723 K | 7.019e-05 m3/mol

Conditions | Molar enthalpy of transition or fusion, [2] [kcal/mol] | Triple point temperature, [1] [K]
Crystal 1 | 7.98 | 823
Crystal 2 | 0.0289 | 290
